Patent EP4790046A1, “NOVEL COMPOUND DERIVED FROM MYRISTICA FRAGRANS, AND ANTICANCER COMPOSITION COMPRISING SAME” (Korea Institute of Science and Technology, priority 2023, dated 2025)
Where two headings read alike, the source gives them in different places.

How the values were obtained:
AGS = experiment: alamarBlue cell viability (survival rate, IC50), AGS; type: cell-based; details: AGS (gastric cancer); for Cancer cell line survival rate (%) / viability at 10 µM: compound 10 µM, 48 hours; for IC50 / viability at 10 µM: Homo sapiens; for IC50: 2.5-40 µM, positive control = doxorubicin; for viability at 10 µM: read-out: Cancer cell line survival rate (%)
Description: (§1) A p-value < 0.05 was considered statistically significant.

23132/87 = experiment: alamarBlue cell viability (survival rate, IC50), 23132/87; type: cell-based; details: 23132/87 (gastric cancer); for Cancer cell line survival rate (%) / viability at 10 µM: compound 10 µM, 48 hours; for IC50: 2.5-40 µM, positive control = doxorubicin; for viability at 10 µM: read-out: Cancer cell line survival rate (%)
Description: as §1

SNU-719 = experiment: alamarBlue cell viability (survival rate, IC50), SNU-719; type: cell-based; details: for Cancer cell line survival rate (%) / viability at 10 µM: SNU-719 (gastric cancer), compound 10 µM, 48 hours; for IC50: SNU719 (gastric cancer), 2.5-40 µM, positive control = doxorubicin; for viability at 10 µM: read-out: Cancer cell line survival rate (%)
Description: as §1

SNU-81 = experiment: alamarBlue cell viability (survival rate, IC50), SNU-81; type: cell-based; details: for Cancer cell line survival rate (%) / viability at 10 µM: SNU-81 (colorectal cancer), compound 10 µM, 48 hours; for viability at 10 µM: read-out: Cancer cell line survival rate (%)
Description: as §1

SNU-C5 = experiment: alamarBlue cell viability (survival rate, IC50), SNU-C5; type: cell-based; details: for Cancer cell line survival rate (%) / viability at 10 µM: SNU-C5 (colorectal cancer), compound 10 µM, 48 hours; for viability at 10 µM: read-out: Cancer cell line survival rate (%)
Description: as §1

SW48 = experiment: alamarBlue cell viability (survival rate, IC50), SW48; type: cell-based; details: SW48 (colorectal cancer); for Cancer cell line survival rate (%) / viability at 10 µM: compound 10 µM, 48 hours; for IC50 / viability at 10 µM: Homo sapiens; for IC50: 2.5-40 µM, positive control = oxaliplatin; for viability at 10 µM: read-out: Cancer cell line survival rate (%)
Description: as §1

SNU201 = experiment: alamarBlue cell viability (survival rate), SNU201; type: cell-based; details: SNU201 (glioblastoma), compound 10 µM, 48 hours; for viability at 10 µM: read-out: Cancer cell line survival rate (%)
Description: as §1

SNU466 = experiment: alamarBlue cell viability (survival rate), SNU466; type: cell-based; details: SNU466 (glioblastoma), compound 10 µM, 48 hours; for viability at 10 µM: read-out: Cancer cell line survival rate (%)
Description: as §1

HepG2 = experiment: alamarBlue cell viability (survival rate), HepG2; type: cell-based; details: HepG2 (liver cancer), compound 10 µM, 48 hours; for viability at 10 µM: Homo sapiens, read-out: Cancer cell line survival rate (%)
Description: as §1

MiaPaCa-2 = experiment: alamarBlue cell viability (survival rate), MiaPaCa-2; type: cell-based; details: MiaPaCa-2 (pancreatic cancer), compound 10 µM, 48 hours; for viability at 10 µM: Homo sapiens, MIA PaCa-2, read-out: Cancer cell line survival rate (%)
Description: as §1

[1] = test system: various cancer cell lines; experiment: alamarBlue cell viability, statements across the cell line panel; details: for anticancer activity: various cancer cell lines; for cytotoxic effects: gastric cancer cell lines and colorectal cancer cell lines, 10 µM, 48 hours
Description: AGS, SW48, HepG2, and MiaPaCa-2 was purchased from ATCC (American Type Culture Collection, USA), SNU cell lines from the Korean Cell Line Bank (KCLB, Korea), and 23132/87 from the Leibniz Institute DSMZ - German Collection of Microorganisms and Cell Cultures GmbH (DSMZ, Germany). All cell lines were cultured in RPMI-1640 medium (HyClone, USA) supplemented with 10% FBS (Gibco, USA) and 1% penicillin-streptomycin (HyClone, USA) under conditions of 5% CO2, 37°C.
Cells were seeded at a density of 5 × 10^3cells/well in a 96-well plate for 24 hours, then treated with the compound at an appropriate concentration (10 µM) for 48 hours. After treatment, alamarBlue reagent was added at a volume ratio of 1/10 of the treatment volume and incubated for 4 hours in a 37°C cell incubator (protected from direct light). Cell viability was then determined by measuring absorbance values at 570 nm and 600 nm using a microplate reader. The anticancer effects of candidate compounds were evaluated by assessing the cell viability (%) of cells treated at specific concentrations and the half-maximal inhibitory concentration (IC50) of each natural product. Doxorubicin and oxaliplatin were used as positive controls for gastric and colorectal cancer, respectively.
Statistical analysis was performed using R software (version 4.2.2) (R Core Team). Differences between groups were assessed using student's t-test or 1-way ANOVA followed by post-hoc Tukey HSD test. A p-value < 0.05 was considered statistically significant.
Further, to measure the IC50 values against six cancer cell lines.

[2] = SNU81 (colorectal cancer), 2.5-40 µM, positive control = oxaliplatin, read-out: IC50
[3] = SNUC5 (colorectal cancer), 2.5-40 µM, positive control = oxaliplatin, read-out: IC50

Row | SMILES | IC50 (AGS) [µM] | IC50 (23132/87) [µM] | IC50 (SNU-719) [µM] | IC50 (SNU-81; [2]) [µM] | IC50 (SNU-C5; [3]) [µM] | IC50 (SW48) [µM] | viability at 10 µM (AGS) [%] | viability at 10 µM (23132/87) [%] | viability at 10 µM (SNU-719) [%] | viability at 10 µM (SNU-81) [%] | viability at 10 µM (SNU-C5) [%] | viability at 10 µM (SW48) [%] | viability at 10 µM (SNU201) [%] | viability at 10 µM (SNU466) [%] | viability at 10 µM (HepG2) [%] | viability at 10 µM (MiaPaCa-2) [%] | anticancer activity [1] | also measured
1 | C/C=C/c1ccc(O[C@H](C)[C@H](c2ccc(O)c(OC)c2)c2ccc(O)c(C(=O)CCCCCCCCc3ccc(O)c(O)c3)c2O)c(OC)c1 (relative stereo) [Compound 8, Myrifragranone A] |  |  |  |  |  |  |  |  |  |  |  |  |  |  |  |  |  | Cancer cell line survival rate (%) (AGS): 2.19%; Cancer cell line survival rate (%) (23132/87): 3.92%; Cancer cell line survival rate (%) (SNU-719): 2.27%; Cancer cell line survival rate (%) (SNU-81): 10.02%; Cancer cell line survival rate (%) (SNU-C5): 4.41%; Cancer cell line survival rate (%) (SW48): 2.04%; Cancer cell line survival rate (%) (SNU201): 108.12%; Cancer cell line survival rate (%) (SNU466): 93.39%; Cancer cell line survival rate (%) (HepG2): 95.41%; Cancer cell line survival rate (%) (MiaPaCa-2): 74.57%
2 | C=CCc1cc(OC)c(O[C@H](C)[C@H](c2ccc(O)c(OC)c2)c2ccc(O)c(C(=O)CCCCCCCCc3ccc(O)c(O)c3)c2O)c(OC)c1 [Compound 1, Myricone A or Myrifragranone B, reference compound] | 4.07 | 4.09 | 3.99 | 14.6 | 6.32 | 4.3 |  |  |  |  |  |  |  |  |  |  |  | Cancer cell line survival rate (%) (AGS): 1.13%; Cancer cell line survival rate (%) (23132/87): 4.71%; Cancer cell line survival rate (%) (SNU-719): 3.95%; Cancer cell line survival rate (%) (SNU-81): 94.79%; Cancer cell line survival rate (%) (SNU-C5): 8.73%; Cancer cell line survival rate (%) (SW48): 1.75%; Cancer cell line survival rate (%) (SNU201): 2.07%; Cancer cell line survival rate (%) (SNU466): 1.7%; Cancer cell line survival rate (%) (HepG2): 2.07%; Cancer cell line survival rate (%) (MiaPaCa-2): 3.15%
3 | C=CCc1cc(OC)c(O[C@H](C)[C@@H](c2ccc(O)c(OC)c2)c2ccc(O)c(C(=O)CCCCCCCCc3ccc(O)c(O)c3)c2O)c(OC)c1 [Compound 2, Myricone B] | 4.59 | 4.25 | 4.7 | 16.6 | 6.85 | 6.18 | 2.45 | 7.44 | 4.55 | 103 | 22.1 | 7.98 | 1.43 | 2.29 | 1.47 | 3.67 |  | 
4 | C=CCc1cc(OC)c(O[C@H](C)[C@@H](c2ccc(O)c(OC)c2)c2ccc(O)c(C(=O)CCCCCCCCc3ccc(O)cc3)c2O)c(OC)c1 [Compound 4, Myricone D] | 7.27 | 4.14 | 5.01 | 16.9 | 5.57 | 5.73 |  |  |  |  |  |  |  |  |  |  | high anticancer activity | Cancer cell line survival rate (%) (AGS): 10.15%; Cancer cell line survival rate (%) (23132/87): 8.41%; Cancer cell line survival rate (%) (SNU-719): 10.19%; Cancer cell line survival rate (%) (SNU-81): 115.60%; Cancer cell line survival rate (%) (SNU-C5): 12.41%; Cancer cell line survival rate (%) (SW48): 2.61%; Cancer cell line survival rate (%) (SNU201): 2.44%; Cancer cell line survival rate (%) (SNU466): 1.74%; Cancer cell line survival rate (%) (HepG2): 1.84%; Cancer cell line survival rate (%) (MiaPaCa-2): 3.54%
5 | C=CCc1ccc(O[C@H](C)[C@H](c2ccc(O)c(OC)c2)c2ccc(O)c(C(=O)CCCCCCCCc3ccc(O)c(O)c3)c2O)c(OC)c1 [Compound 5, Myricone E] |  |  |  |  |  |  | 42.1 | 52.1 | 45 | 126 | 37.6 | 10.2 | 0.61 | 0.58 | 2.34 | 1.64 |  | 
6 | C=CCc1cc(OC)c(O[C@H](C)[C@H](c2ccc(O)c(OC)c2)c2cc(O)c(O)cc2CCCCCCCCC(=O)c2c(O)cccc2O)c(OC)c1 [Compound 6, Myricone F] | 3.35 | 2.39 | 2.58 | 10.3 | 4.04 | 3.09 | 0.51 | 1.46 | 1.36 | 55.8 | 3.53 | 0.82 | 1.4 | 1.96 | 1.32 | 2.16 | high anticancer activity | cytotoxic effects [1]: excellent cytotoxic effects
7 | C=CCc1cc(OC)c(O[C@@H](C)[C@H](Oc2cc(CCCCCCCCC(=O)c3c(O)cccc3O)ccc2O)c2ccc(O)c(OC)c2)c(OC)c1 [Compound 10, Myricone K] |  |  |  |  |  |  | 4.14 | 2.77 | 1.85 | 16.1 | 4.94 | 2.67 | 3.28 | 0.6 | 8.7 | 4.3 | high anticancer activity | 
8 | C=CCc1cc(OC)c(O[C@H](C)[C@H](Oc2cc(CCCCCCCCC(=O)c3c(O)cccc3O)ccc2O)c2ccc(O)c(OC)c2)c(OC)c1 [Compound 11, Myricone L] |  |  |  |  |  |  | 20.3 | 19 | 12.5 | 92.5 | 13.4 | 5.57 | 32.8 | 0.52 | 25.3 | 22 | high anticancer activity | cytotoxic effects [1]: excellent cytotoxic effects
9 | C=CCc1cc(OC)c(OC(C)C(Oc2cccc(O)c2C(=O)CCCCCCCCc2ccc(O)cc2)c2ccc(O)c(OC)c2)c(OC)c1 (stereo not drawn) [Compound 12, Myricone M] |  |  |  |  |  |  | 7.89 | 0.67 | 0.53 | 2.27 | 1.98 | 2.52 | 0.75 | 0.64 | 1.23 | 3.46 | high anticancer activity | 
10 | COc1cc([C@H]2Oc3c(OC)cc(/C=C/Cc4c(CCCCCCCCC(=O)c5c(O)cccc5O)ccc(O)c4O)cc3[C@@H]2C)ccc1O [Compound 18, Myricone T] |  |  |  |  |  |  | 91.9 | 87.1 | 104 | 102 | 78 | 83.5 | 104 | 86.2 | 89 | 74.8 |  | 
11 | COc1cc([C@H]2Oc3c(OC)cc(/C=C/Cc4ccc(O)c(C(=O)CCCCCCCCc5ccc(O)c(O)c5)c4O)cc3[C@@H]2C)ccc1O [Compound 19, Myricone X] |  |  |  |  |  |  | 84.5 | 89.3 | 108 | 102 | 69.6 | 69.7 | 107 | 80.9 | 52.4 | 56.9 |  | 
12 | O=C(CCCCCCCCc1cc(O)c(O)cc1-c1ccc(O)c(C(=O)CCCCCCCCc2ccc(O)c(O)c2)c1O)c1c(O)cccc1O [Compound 26, Giganteones A, reference compound] | 1.71 | 4.08 | 4.6 | 8.94 | 3.72 | 2.77 |  |  |  |  |  |  |  |  |  |  |  | anticancer activity (comparison of IC50 values among compounds) ([1]; six cancer cell lines, 2.5-40 µM): overall superior activity to Myrifragranone B and Malabaricone C
13 | O=C1[O][Pt]2([NH][C@@H]3CCCC[C@H]3[NH]2)[O]C1=O [oxaliplatin, reference compound] |  |  |  |  |  |  |  |  |  |  |  |  |  |  |  |  |  | IC50 (SNU-81; SNU81 cells, compound 2.5-40 µM, read-out: IC50 values): 41.5 µM; IC50 (SNU-C5; SNUC5 cells, compound 2.5-40 µM, read-out: IC50 values): 12.6 µM
